Results taken from patent publication US5840684A, “Glycopeptide antibiotic derivatives” (Eli Lilly and Company, priority 1995, dated 1998).
In brackets after ≈: the same amount, converted by molar mass.

What was measured:
[1] = tested on: Staphylococcus aureus 489; assay: broth micro-dilution MIC; format: cell-based
Description: (§1) The MIC's were determined using a standard broth micro-dilution assay.

[2] = tested on: Staphylococcus aureus 446; assay: broth micro-dilution MIC; format: cell-based
Description: as §1

[3] = tested on: Staphylococcus aureus SA1199; assay: broth micro-dilution MIC; format: cell-based
Description: as §1

[4] = tested on: Staphylococcus aureus SA1199A; assay: broth micro-dilution MIC; format: cell-based
Description: as §1

[5] = tested on: Entercoccus faecium 180-1; assay: broth micro-dilution MIC; format: cell-based
Description: as §1

[6] = tested on: Staphylococcus aureus X778; assay: broth micro-dilution MIC; format: cell-based
Description: as §1

[7] = tested on: Staphylococcus aureus X400; assay: broth micro-dilution MIC; format: cell-based
Description: as §1

[8] = tested on: Staphylococcus aureus 447; assay: broth micro-dilution MIC; format: cell-based
Description: as §1

[9] = tested on: Staphylococcus aureus 491; assay: broth micro-dilution MIC; format: cell-based
Description: as §1

[10] = tested on: Streptococcus pyogenes C203; assay: broth micro-dilution MIC; format: cell-based
Description: as §1

Entercoccus faecium 276 = assay: broth micro-dilution MIC; format: cell-based
Description: as §1

[11] = tested on: Staphylococcus aureus S13E; format: cell-based
Description: as §1

[12] = tested on: Staphylococcus aureus SA1199B; format: cell-based
Description: as §1

[13] = tested on: vancomycin-susceptible enterococci; assay: broth micro-dilution, mean geometric MIC; format: cell-based, Enterococcus faecium and Enterococcus faecalis; settings: enterococci, 24-hour incubation
Entercoccus faecium 180 = assay: broth micro-dilution MIC; format: cell-based; settings: Entercoccus faecium 180
Description: (§2) The formula I compounds have in vitro and in vivo activity against Gram-positive pathogenic bacteria. The MIC's were determined using a standard broth micro-dilution assay.

[14] = tested on: Haemophilus influenzae RD; assay: broth micro-dilution MIC; format: cell-based; settings: Haemophilus influenzae RD
Description: as §2

[15] = tested on: Staphylococcus haemolyticus 415; assay: broth micro-dilution MIC; format: cell-based
Description: as §2

[16] = tested on: Staphylococcus epidermidis 270; assay: broth micro-dilution MIC; format: cell-based
Description: as §2

[17] = tested on: Staphylococcus haemolyticus 105; assay: broth micro-dilution MIC; format: cell-based
Description: as §2

[18] = tested on: Streptococcus pneumoniae P1; assay: broth micro-dilution MIC; format: cell-based
Description: as §2

Escherichia coli EC14 = assay: broth micro-dilution MIC; format: cell-based
Description: as §2

[19] = tested on: Enterococcus gallinarum 245; assay: broth micro-dilution MIC; format: cell-based; settings: Enterococcus gallinarum 245
Description: as §2

Entercoccus faecium 2041 = assay: broth micro-dilution MIC; format: cell-based; settings: Entercoccus faecium 2041
Description: as §2

[20] = tested on: vancomycin-resistant enterococci; assay: broth micro-dilution, mean geometric MIC; format: cell-based, Enterococcus faecium and Enterococcus faecalis; settings: enterococci, 24-hour incubation

Structure (SMILES) | MIC [1] [µg/mL] | MIC [2] [µg/mL] | MIC [3] [µg/mL] | MIC [4] [µg/mL] | MIC [5] [µg/mL] | MIC [6] [µg/mL] | MIC [7] [µg/mL] | MIC [8] [µg/mL] | MIC [9] [µg/mL] | MIC [10] [µg/mL] | MIC (Entercoccus faecium 276) [µg/mL] | MIC [11] [µg/mL] | MIC [12] [µg/mL] | mean geometric MIC, Vancomycin Sensitive Strains [13] [µg/mL] | MIC (Entercoccus faecium 180) [µg/mL] | MIC [14] [µg/mL] | MIC [15] [µg/mL] | MIC [16] [µg/mL] | MIC [17] [µg/mL] | MIC [18] [µg/mL] | other results
CC(C)CC(C(=O)NC1C(=O)NC(CC(N)=O)C(=O)NC2C(=O)NC3C(=O)NC(C(=O)NC(C(=O)O)c4cc(O)cc(O)c4-c4cc3ccc4O)C(OC3CC(C)(N)C(O)C(C)O3)c3ccc(c(Cl)c3)Oc3cc2cc(c3OC2OC(CO)C(O)C(O)C2OC2CC(C)(NCc3ccc(Oc4ccccc4)cc3)C(O)C(C)O2)Oc2ccc(cc2Cl)C1O)N(C)Cc1ccc(Oc2ccccc2)cc1 (stereo not drawn) [Compound 247] | 0.25 (≈ 0.128 µM) | 0.5 (≈ 0.256 µM) | 1 (≈ 0.511 µM) | ≤ 0.06 | ≤ 0.06 | 0.5 (≈ 0.256 µM) | 0.5 (≈ 0.256 µM) | 1 (≈ 0.511 µM) | 0.5 (≈ 0.256 µM) | ≤ 0.06 | 0.25 (≈ 0.128 µM) | 0.5 (≈ 0.256 µM) | 0.5 (≈ 0.256 µM) | 0.29 | 0.5 (≈ 0.256 µM) | > 64 | 2 (≈ 1.02 µM) | 1 (≈ 0.511 µM) | 1 (≈ 0.511 µM) | ≤ 0.06 | MIC (Escherichia coli EC14): > 64 µg/mL; MIC [19]: 0.125 µg/mL (≈ 0.0639 µM); MIC (Entercoccus faecium 2041): 0.125 µg/mL (≈ 0.0639 µM); mean geometric MIC, Vancomycin Resistant Strains [20]: 2.4 µg/mL
CC(C)CC(C(=O)NC1C(=O)NC(CC(N)=O)C(=O)NC2C(=O)NC3C(=O)NC(C(=O)NC(C(=O)O)c4cc(O)cc(O)c4-c4cc3ccc4O)C(OC3CC(C)(N)C(O)C(C)O3)c3ccc(c(Cl)c3)Oc3cc2cc(c3OC2OC(CO)C(O)C(O)C2OC2CC(C)(NCc3cccnc3)C(O)C(C)O2)Oc2ccc(cc2Cl)C1O)N(C)Cc1cccnc1 (stereo not drawn) [Compound 280] | 1 (≈ 0.563 µM) | 2 (≈ 1.13 µM) | 2 (≈ 1.13 µM) | 0.5 (≈ 0.282 µM) | 0.25 (≈ 0.141 µM) | 0.5 (≈ 0.282 µM) | 1 (≈ 0.563 µM) | 8 (≈ 4.51 µM) | 2 (≈ 1.13 µM) | 0.125 (≈ 0.0704 µM) | 0.5 (≈ 0.282 µM) | 2 (≈ 1.13 µM) | 0.5 (≈ 0.282 µM) | 7 | 32 (≈ 18 µM) | > 64 | 32 (≈ 18 µM) | 8 (≈ 4.51 µM) | > 64 | 0.125 (≈ 0.0704 µM) | MIC (Escherichia coli EC14): > 64 µg/mL; MIC [19]: 32 µg/mL (≈ 18 µM); MIC (Entercoccus faecium 2041): 1 µg/mL (≈ 0.563 µM); mean geometric MIC, Vancomycin Resistant Strains [20]: > 128 µg/mL
CC(C)CC(C(=O)NC1C(=O)NC(CC(N)=O)C(=O)NC2C(=O)NC3C(=O)NC(C(=O)NC(C(=O)O)c4cc(O)cc(O)c4-c4cc3ccc4O)C(OC3CC(C)(NCc4ccc(-c5ccc(Cl)cc5)cc4)C(O)C(C)O3)c3ccc(c(Cl)c3)Oc3cc2cc(c3OC2OC(CO)C(O)C(O)C2OC2CC(C)(NCc3ccc(-c4ccc(Cl)cc4)cc3)C(O)C(C)O2)Oc2ccc(cc2Cl)C1O)N(C)Cc1ccc(-c2ccc(Cl)cc2)cc1.O=C(O)C(F)(F)F (stereo not drawn) [Compound 255] | > 64 | 64 | > 64 | 16 | 16 | > 64 | > 64 | > 64 | > 64 | 16 | > 64 | > 64 | > 64 | 32 | > 64 | > 64 | > 64 | > 64 | > 64 | 1 | MIC (Escherichia coli EC14): > 64 µg/mL; MIC [19]: > 64 µg/mL; MIC (Entercoccus faecium 2041): 16 µg/mL; mean geometric MIC, Vancomycin Resistant Strains [20]: 64 µg/mL
CNC(CC(C)C)C(=O)NC1C(=O)NC(CC(N)=O)C(=O)NC2C(=O)NC3C(=O)NC(C(=O)NC(C(=O)O)c4cc(O)cc(O)c4-c4cc3ccc4O)C(OC3CC(C)(NCc4cnc5ccccc5c4)C(O)C(C)O3)c3ccc(c(Cl)c3)Oc3cc2cc(c3OC2OC(CO)C(O)C(O)C2OC2CC(C)(NCc3cnc4ccccc4c3)C(O)C(C)O2)Oc2ccc(cc2Cl)C1O (stereo not drawn) [Compound 275] | ≤ 0.06 | 0.25 (≈ 0.133 µM) | ≤ 0.06 | ≤ 0.06 | ≤ 0.06 | ≤ 0.06 | 0.25 (≈ 0.133 µM) | 1 (≈ 0.533 µM) | 1 (≈ 0.533 µM) | ≤ 0.06 | ≤ 0.06 | 0.125 (≈ 0.0667 µM) | 0.125 (≈ 0.0667 µM) | 0.33 | 1 (≈ 0.533 µM) | > 64 | 4 (≈ 2.13 µM) | 1 (≈ 0.533 µM) | 1 (≈ 0.533 µM) | ≤ 0.06 | MIC (Escherichia coli EC14): > 64 µg/mL; MIC [19]: 4 µg/mL (≈ 2.13 µM); MIC (Entercoccus faecium 2041): ≤ 0.06 µg/mL; mean geometric MIC, Vancomycin Resistant Strains [20]: 16 µg/mL
